Laboratory results: patent US7056940B2, “Insecticidal 3-(2,6-disubstituted phenyl)-5-[5-arylthien-2-yl]-1,2,4-triazoles” (Dow AgroSciences LLC, priority 2001, dated 2006)

What was measured:
[1] = tested on: Tobacco Budworm (Heliothis virescens); assay: Insecticidal test for tobacco budworm, treated cotton cotyledon leaf disc; format: in vivo; parameters: key: A: 90–100; B: 80–89; C: 70–79; D: 60–69; E: 50–59; F: less than 50; G: Inactive; conditions: cotton cotyledon leaf-dip, 2nd instar larvae, 5 days
[2] = tested on: Beet Armyworm (Spodoptera exigua); assay: Insecticidal test for beet armyworm, treated lepidopteran diet; format: in vivo; parameters: key: A: 90–100; B: 80–89; C: 70–79; D: 60–69; E: 50–59; F: less than 50; G: Inactive; conditions: on diet surface, second-instar larvae, 5 days
Summary of the method: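 Test compound formulated at 400 ppm in 2:1 acetone:tap water; 250 μL applied onto surface of modified Shorey lepidopteran diet, five cups per compound (one cup = one replicate). After solvent air-dried, one second-instar larva placed on treated diet per cup.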

[3] = tested on: Cabbage Looper (Trichoplusia ni); assay: Insecticidal test for cabbage looper, treated cabbage leaf disc; format: in vivo; conditions: cabbage leaf-dip, 2nd instar larvae, 5 days
[4] = tested on: Cotton Aphid (Aphis gossypii); assay: Insecticidal test for cotton aphid, spray on infested squash cotyledons; format: in vivo; conditions: 50 ppm spray, 3 days
Summary of the method: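 Squash cotyledons were infested with all aphid life stages 16–20 h beforehand, then sprayed on both sides to runoff with 50 ppm compound (acetone:ethanol, 0.05% Tween 20). After 3 days at 26 °C and 40% RH, aphids were counted under a microscope, and percent control is population reduction versus untreated.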

[5] = tested on: Two-spotted Spider Mite (Tetranychus urticae); assay: Insecticidal test for two-spotted spider mite, ovicide method; format: in vivo; parameters: key: A: 90–100; B: 80–89; C: 70–79; D: 60–69; E: 50–59; F: less than 50; G: Inactive; conditions: cotton leaf discs, 6 days
Summary of the method: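 Cotton leaf discs (eight, 2.2 cm each) received ten adult female two-spotted spider mites, which laid eggs for 24 hours before being taken off. The discs were then set on an agar substrate and kept at 24° C. and 90% RH for 6 days to assess ovicidal control.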

[6] = tested on: Sweetpotato Whitefly (Bemisia tabacia); assay: Insecticidal test for sweetpotato whitefly, spray on cotton plants; format: in vivo; parameters: key: A: 90–100; B: 80–89; C: 70–79; D: 60–69; E: 50–59; F: less than 50; G: Inactive; conditions: 200 ppm spray, 13 days, large nymphs
Summary of the method: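 Five-week cotton plants trimmed to two leaves carried 2 days of whitefly oviposition, then adults were removed. Leaves were sprayed top and bottom with 200 ppm compound in water with 0.05% Tween 20 (acetone:ethanol co-solvent), four replicates. After 13 days at 28° C/60% RH, 3rd–4th instar nymphs were counted; percent control versus solvent-only sprayed plants.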

Structure (SMILES)	TBW: activity at 400 ppm against tobacco budworm (% control rating) [1]	BAW: activity at 400 ppm against beet armyworm (% control rating) [2]	CL: activity at 400 ppm against cabbage looper (% control rating) [3]	CA: activity at 50 ppm against cotton aphid (% control rating) [4]	SM: activity against two-spotted spider mite (% control rating) [5]	WF: activity at 200 ppm against whitefly (% control rating) [6]	melting point [°C]
Cc1c(-c2nc(-c3c(F)cccc3Cl)nn2C)csc1-c1ccc(F)cc1	F (less than 50)	G	D (60–69)	B (80–89)	B (80–89)	F (less than 50)	–
Cn1nc(-c2c(F)cccc2Cl)nc1-c1csc(-c2ccc(C(F)(F)F)cc2F)c1	D (60–69)	A (90–100)	A (90–100)	C (70–79)	C (70–79)	F (less than 50)	–
Cc1c(-c2ccc(OC(F)(F)C(F)Br)cc2)csc1-c1nc(-c2c(F)cccc2Cl)nn1C (centres unmarked)	B (80–89)	A (90–100)	A (90–100)	A (90–100)	G	A (90–100)	–
Cc1c(-c2ccc(OC(F)(F)C(F)Cl)cc2)csc1-c1nc(-c2c(F)cccc2Cl)nn1C (centres unmarked)	B (80–89)	A (90–100)	A (90–100)	B (80–89)	C (70–79)	A (90–100)	–
Cc1c(-c2ccc(OC(F)(F)C(F)C(F)(F)F)cc2)csc1-c1nc(-c2c(F)cccc2Cl)nn1C (centres unmarked)	A (90–100)	A (90–100)	A (90–100)	D (60–69)	A (90–100)	A (90–100)	–
Cc1c(-c2nc(-c3c(F)cccc3Cl)nn2C)sc(Br)c1-c1ccc(OC(F)(F)C(F)Br)cc1 (centres unmarked)	F (less than 50)	A (90–100)	A (90–100)	B (80–89)	G	F (less than 50)	–
Cc1c(-c2nc(-c3c(F)cccc3Cl)nn2C)csc1-c1ccc(OC(F)(F)F)cc1 [Example 1, 3-(2-Chloro-6-fluorophenyl)-5-[4-methyl-5-(4-trifluoromethoxyphenyl)thien-3-yl]-1-methyl-1H-1,2,4-triazole]	–	–	–	–	–	–	124 to 125
Cn1nc(-c2c(F)cccc2Cl)nc1-c1cc(-c2cccc(C(F)(F)F)c2)sc1Cl [Example 2, 3-(2-Chloro-6-fluorophenyl)-5-[2-chloro-5-(3-trifluoromethylphenyl)thien-3-yl]-1-methyl-1H-1,2,4-triazole]	–	–	–	–	–	–	53 to 54
Cn1nc(-c2c(F)cccc2Cl)nc1-c1cc(-c2ccc(OC(F)(F)F)cc2)sc1Br [Example 3, 3-(2-Chloro-6-fluorophenyl)-5-[2-bromo-5-(4-trifluoromethoxyphenyl)thien-3-yl]-1-methyl-1H-1,2,4-triazole]	–	–	–	–	–	–	135 to 136
Cc1sc(-c2ccc(OC(F)(F)F)cc2)cc1-c1nc(-c2c(F)cccc2Cl)nn1C [Example 4, 3-(2-Chloro-6-fluorophenyl)-5-[2-methyl-5-(4-trifluoromethoxyphenyl)thien-3-yl]-1-methyl-1H-1,2,4-triazole]	–	–	–	–	–	–	153 to 155
Cc1c(-c2nc(-c3c(F)cccc3Cl)nn2C)csc1-c1ccc(OC(F)(F)C(F)C(F)(F)F)cc1 (centres unmarked) [Example 7, 3-(2-Chloro-6-fluorophenyl)-5-{5-[4-(1,1,2,3,3,3-hexafluoropropoxy)phenyl]-4-methylthien-3-yl}-1-methyl-1H-1,2,4-triazole]	–	–	–	–	–	–	114 to 116
Cc1c(-c2nc(-c3c(F)cccc3Cl)nn2C)csc1-c1ccc(OC(F)(F)C(F)C(F)(F)F)cc1 (centres unmarked) [drawing 216]	A (90–100)	A (90–100)	A (90–100)	D (60–69)	B (80–89)	A (90–100)	–
Cc1c(-c2nc(-c3c(F)cccc3Cl)nn2C)csc1-c1ccc(F)cc1F [drawing 224]	D (60–69)	G	A (90–100)	A (90–100)	G	G	–
Cc1c(-c2nc(-c3c(F)cccc3Cl)nn2C)csc1-c1ccc(F)cc1F [drawing 233]	G	G	A (90–100)	B (80–89)	B (80–89)	F (less than 50)	–
